This is an account of results in patent publication US8895585B2, “Nicotinamide derivative or salt thereof” (FUJIFILM Corporation, priority 2010, dated 2014).

The assay addresses T1, glutathione S-transferase (GST)-fused full-length human Syk protein (Homo sapiens, UniProt P43405).
T1 construct: (GST)-fused full-length human Syk protein; GST (glutathione S-transferase); purchased Carna Biosciences
Put plainly: Syk enzyme assay. The format is biochemical. As to conditions: Syk enzyme assay, Test Example 1; read-out: IC50 of Syk-inhibitory activity. The essentials: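 GST-tagged full-length human Syk (baculovirus) preincubated with compound 15 min at room temperature (pH 7.0, 10 mM MgCl2), then reacted 40 min with 0.4 μM biotinylated peptide substrate and 27 μM ATP (final). Phosphorylation read by HTRF (615/665 nm) after EDTA stop; IC50 reported.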
On to `CCOc1ccccc1-c1cncc(Nc2nc(N[C@@H]3CCCC[C@@H]3N)c(F)cc2C(N)=O)c1` (relative stereo) [Example 004-182, 6-(cis-2-aminocyclohexylamino)-2-((5-(2-ethoxyphenyl)pyridin-3-yl)amino)-5-fluoronicotinamide], for which the IC50 is under 0.01 µM.

As for `CC(C)COc1ccccc1-c1cncc(Nc2nc(N[C@@H]3CCCC[C@@H]3N)c(F)cc2C(N)=O)c1` (relative stereo) [Example 004-183, 6-(cis-2-aminocyclohexylamino)-5-fluoro-2-((5-(2-isobutoxyphenyl)pyridin-3-yl)amino)-nicotinamide], the IC50 was in the range of 0.05 to 0.1 µM.

As for `COCCOc1ccccc1-c1cncc(Nc2nc(N[C@@H]3CCCC[C@@H]3N)c(F)cc2C(N)=O)c1` (relative stereo) [Example 004-185, 6-(cis-2-aminocyclohexylamino)-5-fluoro-2-((5-(2-(2-methoxyethoxy)phenyl)pyridin-3-yl)amino)nicotinamide], the IC50 was under 0.01 µM.

In the case of `NC(=O)c1cc(F)c(N[C@@H]2CCCC[C@@H]2N)nc1Nc1cncc(-c2ccccc2O)c1` (relative stereo) [Example 004-186, 6-(cis-2-aminocyclohexylamino)-5-fluoro-2-((5-(2-hydroxyphenyl)pyridin-3-yl)amino)nicotinamide], the half-maximal inhibitory concentration (IC50) was under 0.01 µM.

On to `NC(=O)c1cc(F)c(N[C@@H]2CCCC[C@@H]2N)nc1Nc1cncc(COCc2ccccc2)c1` (relative stereo) [Example 004-189, 6-(cis-2-aminocyclohexylamino)-2-((5-((benzyloxy)methyl)pyridin-3-yl)amino)-5-fluoronicotinamide], for which the half-inhibitory concentration (IC50) was in the range of 0.05 to 0.1 µM.

`NC(=O)c1cc(F)c(N[C@@H]2CCCC[C@@H]2N)nc1Nc1ccnc(COCc2ccccc2)c1` (relative stereo) [Example 004-192, 6-(cis-2-aminocyclohexylamino)-2-((2-((benzyloxy)methyl)pyridin-4-yl)amino)-5-fluoronicotinamide]: the half-inhibitory concentration (IC50) was 0.05 to 0.1 µM.

`NC(=O)c1cc(F)c(N[C@@H]2CCCC[C@@H]2N)nc1Nc1cncc(CO)c1` (relative stereo) [Example 004-193, 6-(cis-2-aminocyclohexylamino)-5-fluoro-2-((5-(hydroxymethyl)pyridin-3-yl)amino)nicotinamide]: the IC50 lay in the range of 0.05 to 0.1 µM.

`NC(=O)c1cc(F)c(N[C@@H]2CCCC[C@@H]2N)nc1Nc1ccnc(CO)c1` (relative stereo) [Example 004-194, 6-(cis-2-aminocyclohexylamino)-5-fluoro-2-((2-(hydroxymethyl)pyridin-4-yl)amino)nicotinamide]: the IC50 lay within 0.01 to 0.05 µM.

Consider `NC(=O)c1cc(F)c(N[C@@H]2CCCC[C@@H]2N)nc1Nc1ccc2nc(OCCCN3CCCC3=O)ccc2c1` (relative stereo) [Example 004-200, 6-(cis-2-aminocyclohexylamino)-5-fluoro-2-((2-(3-(2-oxopyrrolidin-1-yl)propoxy)quinolin-6-yl)amino)nicotinamide], for which the concentration for half-maximal inhibition (IC50) was under 0.01 µM.

As for `NC(=O)c1cc(F)c(N[C@@H]2CCCC[C@@H]2N)nc1Nc1ccc2nc(-n3nccn3)ccc2c1` (relative stereo) [Example 004-202, 2-((2-(2H-1,2,3-triazol-2-yl)quinolin-6-yl)amino)-6-(cis-2-aminocyclohexylamino)-5-fluoronicotinamide], the IC50 was under 0.01 µM.

Take `NC(=O)c1cc(F)c(N[C@@H]2CCCC[C@@H]2N)nc1Nc1ccc2nc(-n3cccn3)ccc2c1` (relative stereo) [Example 004-203, 2-((2-(1H-pyrazol-1-yl)quinolin-6-yl)amino)-6-(cis-2-aminocyclohexylamino)-5-fluoronicotinamide]: the IC50 was under 0.01 µM.

Regarding `NC(=O)c1cc(F)c(N[C@@H]2CCCC[C@@H]2N)nc1Nc1cncc(-c2cccc(F)c2F)c1` (relative stereo) [Example 004-204, 6-(cis-2-aminocyclohexylamino)-2-((5-(2,3-difluorophenyl)pyridin-3-yl)amino)-5-fluoronicotinamide], the IC50 was under 0.01 µM.

Regarding `NC(=O)c1cc(F)c(N[C@@H]2CCCC[C@@H]2N)nc1Nc1cncc(-c2cc(F)ccc2F)c1` (relative stereo) [Example 004-205, 6-(cis-2-aminocyclohexylamino)-2-((5-(2,5-difluorophenyl)pyridin-3-yl)amino)-5-fluoronicotinamide], the IC50 was under 0.01 µM.

In the case of `NC(=O)c1cc(F)c(N[C@@H]2CCCC[C@@H]2N)nc1Nc1cncc(-c2cccc(Cl)c2F)c1` (relative stereo) [Example 004-206, 6-(cis-2-aminocyclohexylamino)-2-((5-(3-chloro-2-fluorophenyl)pyridin-3-yl)amino)-5-fluoronicotinamide], the 50% inhibitory concentration (IC50) was under 0.01 µM.

As for `NC(=O)c1cc(F)c(N[C@@H]2CCCC[C@@H]2N)nc1Nc1cncc(-c2cc(Cl)ccc2F)c1` (relative stereo) [Example 004-207, 6-(cis-2-aminocyclohexylamino)-2-((5-(5-chloro-2-fluorophenyl)pyridin-3-yl)amino)-5-fluoronicotinamide], the 50% inhibitory concentration (IC50) is under 0.01 µM.

Regarding `NC(=O)c1cc(F)c(N[C@@H]2CCCC[C@@H]2N)nc1Nc1ccc2nc(-n3cccn3)cnc2c1` (relative stereo) [Example 004-208, 2-((2-(1H-pyrazol-1-yl)quinoxalin-6-yl)amino)-6-(cis-2-aminocyclohexylamino)-5-fluoronicotinamide], the concentration for half-maximal inhibition (IC50) was under 0.01 µM.

As for `NC(=O)c1cc(F)c(N[C@@H]2CCCC[C@@H]2N)nc1Nc1cnc2cc(-n3nccn3)ccc2c1` (relative stereo) [Example 004-209, 2-((7-(2H-1,2,3-triazol-2-yl)quinolin-3-yl)amino)-6-(cis-2-aminocyclohexylamino)-5-fluoronicotinamide], the half-maximal inhibitory concentration (IC50) is under 0.01 µM.

Regarding `NC(=O)c1cc(F)c(N[C@@H]2CCCC[C@@H]2N)nc1Nc1cnc2cc(-n3cccn3)ccc2c1` (relative stereo) [Example 004-210, 2-((7-(1H-pyrazol-1-yl)quinolin-3-yl)amino)-6-(cis-2-aminocyclohexylamino)-5-fluoronicotinamide], the IC50 was under 0.01 µM.

On to `NC(=O)c1cc(F)c(N[C@@H]2CCCC[C@@H]2N)nc1Nc1cncc(-n2ccccc2=O)c1` (relative stereo) [Example 004-211, 6-(cis-2-aminocyclohexylamino)-5-fluoro-2-((2-oxo-2H-[1,3′-bipyridin]-5′-yl)amino)nicotinamide], for which the IC50 is 0.1 to 1 µM.

`NC(=O)c1cc(F)c(N[C@@H]2CCCC[C@@H]2N)nc1Nc1cnc(N2CCOCC2)c(F)c1` (relative stereo) [Example 004-216, 6-(cis-2-aminocyclohexylamino)-5-fluoro-2-((5-fluoro-6-morpholinopyridin-3-yl)amino)nicotinamide]: the 50% inhibitory concentration (IC50) is 0.01 to 0.05 µM.

In the case of `NC(=O)c1cc(F)c(N[C@@H]2CCCC[C@@H]2N)nc1Nc1cncc(-c2cccc(N3CCOCC3)c2)c1` (relative stereo) [Example 004-221, 6-(cis-2-aminocyclohexylamino)-5-fluoro-2-((5-(3-morpholinophenyl)pyridin-3-yl)amino)nicotinamide], the half-maximal inhibitory concentration (IC50) was under 0.01 µM.

With `NC(=O)c1cc(F)c(N[C@@H]2CCCC[C@@H]2N)nc1Nc1cncc(-c2cccc(N3CCCC3=O)c2)c1` (relative stereo) [Example 004-225, 6-(cis-2-aminocyclohexylamino)-5-fluoro-2-((5-(3-(2-oxopyrrolidin-1-yl)phenyl)pyridin-3-yl)amino)nicotinamide], the IC50 lay within 0.01 to 0.05 µM.

The term IC50 denotes the concentration that inhibits the measured activity by half.
